Measured values as given in US20090111743A1, “Cysteine-branched heparin-binding growth factor analogs” (BioSurface Engineering Technologies, Inc., priority 2005, published 2009).
Where no end group is shown, it is not given here. Side-chain parts run from the residue outwards. CX1X1X1RKRLDRIAR‑NH2 = not defined here; bMB = bis-maleimidobutane

Assays:
Assay type in all cases: cell-based
[1] = system: human fetal osteoblast cell line (hFOB); assay: Cell growth study, MTS relative cell number, hFOB cells; conditions: for % OF CONTROL VALUE / MEAN ABSORBANCE: hFOB, 3 days in culture, MTS
Description: (§1) The synthetic branched peptide construct of Example 4 was tested in cell growth studies, to determine the ability of the synthetic branched peptide construct to stimulate cell growth. Cell growth was monitored using a commercially available kit (Promega Corporation, Madison, Wis.) based on a tetrazolium compound (3-(4,5-dimethylthiazol-2-yl)-5-(3-carboxymethoxyphenyl)-2-(4-sulfophenyl)-2H-tetrazolium, inner salt (MTS). Aliquots of 10^3 cells were seeded into wells of 96-well plates and allowed to attach. The medium was then replaced with a low serum medium containing between 0 and 10 μg/mL of the synthetic branched peptide construct of Example 4. After 3 days in culture, the relative cell number was monitored using MTS following the directions of the manufacturer. Statistical significance was determined using ANOVA followed by post-hoc multiple comparisons versus control group (Dunnett's Method).
(§2) MC3T3E1 osteoblastic cells, C3H10T1/2 mouse pluripotent stem cells, C2C12 murine myoblasts, and cells from a human fetal osteoblast cell line (hFOB) were obtained from the American Type Culture Collection (Manassas, Va.) and were maintained in DMEM:F12 medium containing newborn calf serum and antibiotics. MC3T3E1, C3H10T1/2, and hFOB cells were positive for growth induction by synthetic branched peptide construct of […] as shown in Table 3 below. The effective concentration was between 1 and 10 μg/mL. C2C12 was negative for growth using the synthetic branched peptide construct of Example 4.

[2] = system: MC3T3E1 osteoblastic cells; assay: Cell growth study, MTS relative cell number, MC3T3E1 cells; conditions: for % OF CONTROL VALUE / MEAN ABSORBANCE: 3 days in culture, MTS
Description: as §1, §2

[3] = system: C3H10T1/2 mouse pluripotent stem cells; assay: Cell growth study, MTS relative cell number, C3H10T1/2 cells; conditions: for % OF CONTROL VALUE / MEAN ABSORBANCE: 3 days in culture, MTS
Description: as §1, §2

[4] = system: C2C12 murine myoblasts; assay: Cell growth study, MTS relative cell number, C2C12 cells; conditions: for % OF CONTROL VALUE / MEAN ABSORBANCE: 3 days in culture, MTS
Description: as §1, §2

“NH2-LYVDFSDVGWNDWC(bMB-CX1X1X1RKRLDRIAR-amide)-AISMLYLDENEKVVL-amide (chain 1 H-LYVDFSDVGWNDWC([bMB-CX1X1X1RKRLDRIAR‑NH2]); chain 2 AISMLYLDENEKVVL-NH2; reading uncertain; also: chains 1 and 2 form one continuous backbone (C14 of chain 1 peptide-bonded to A1 of chain 2), printed as NH2-LYVDFSDVGWNDWC(bMB-CX1X1X1RKRLDRIAR-amide)-AISMLYLDENEKVVL-amide) [Example 4, heterodimeric BMP-2 analog branched via cysteine and 1,4-bis-maleimidobutane; X1 is 6-aminohexanoic acid]” was tested, and the growth induction ([1]; hFOB cells, 0 to 10 μg/mL, 3 days) was “positive”, the “% OF CONTROL VALUE” ([1]; 0.5 μg/mL) was 121% and the “MEAN ABSORBANCE” value ([1]; 0.5 μg/mL) was 0.58. The “% OF CONTROL VALUE” ([1]; 1 μg/mL) was 131%, the “MEAN ABSORBANCE” value ([1]; 1 μg/mL) was 0.62 and the “% OF CONTROL VALUE” ([1]; 2 μg/mL) was 135%. The “MEAN ABSORBANCE” value ([1]; 2 μg/mL) was 0.64, the “% OF CONTROL VALUE” ([1]; 5 μg/mL) was 127% and the “MEAN ABSORBANCE” value ([1]; 5 μg/mL) was 0.60. For the same substance, the “% OF CONTROL VALUE” ([1]; 10 μg/mL) was 130%, the “MEAN ABSORBANCE” value ([1]; 10 μg/mL) was 0.62 and the “% OF CONTROL VALUE” ([2]; MC3T3E1, 0.5 μg/mL) was 103%. For the same substance, the “MEAN ABSORBANCE” value ([2]; MC3T3E1, 0.5 μg/mL) was 0.74, the “% OF CONTROL VALUE” ([2]; MC3T3E1, 1 μg/mL) was 99% and the “MEAN ABSORBANCE” value ([2]; MC3T3E1, 1 μg/mL) was 0.71. For the same substance, the “% OF CONTROL VALUE” ([2]; MC3T3E1, 2 μg/mL) was 138%, the “MEAN ABSORBANCE” value ([2]; MC3T3E1, 2 μg/mL) was 0.99 and the “% OF CONTROL VALUE” ([2]; MC3T3E1, 5 μg/mL) was 133%. For the same substance, the “MEAN ABSORBANCE” value ([2]; MC3T3E1, 5 μg/mL) was 0.96, the “% OF CONTROL VALUE” ([2]; MC3T3E1, 10 μg/mL) was 134% and the “MEAN ABSORBANCE” value ([2]; MC3T3E1, 10 μg/mL) was 0.96. The growth induction ([2]; MC3T3E1 cells, 0 to 10 μg/mL, 3 days) was “positive”, the “% OF CONTROL VALUE” ([3]; C3H10T1/2, 0.5 μg/mL) was 147% and the “MEAN ABSORBANCE” value ([3]; C3H10T1/2, 0.5 μg/mL) was 0.41. For the same substance, the “% OF CONTROL VALUE” ([3]; C3H10T1/2, 1 μg/mL) was 152%, the “MEAN ABSORBANCE” value ([3]; C3H10T1/2, 1 μg/mL) was 0.42 and the “% OF CONTROL VALUE” ([3]; C3H10T1/2, 2 μg/mL) was 158%. The “MEAN ABSORBANCE” value ([3]; C3H10T1/2, 2 μg/mL) was 0.44, the “% OF CONTROL VALUE” ([3]; C3H10T1/2, 5 μg/mL) was 156% and the “MEAN ABSORBANCE” value ([3]; C3H10T1/2, 5 μg/mL) was 0.43. For the same substance, the “% OF CONTROL VALUE” ([3]; C3H10T1/2, 10 μg/mL) was 144%, the “MEAN ABSORBANCE” value ([3]; C3H10T1/2, 10 μg/mL) was 0.40 and the growth induction ([3]; C3H10T1/2 cells, 0 to 10 μg/mL, 3 days) was “positive”. For the same substance, the “% OF CONTROL VALUE” ([4]; C2C12, 0.5 μg/mL) was 99%, the “MEAN ABSORBANCE” value ([4]; C2C12, 0.5 μg/mL) was 0.30 and the “% OF CONTROL VALUE” ([4]; C2C12, 1 μg/mL) was 101%. The “MEAN ABSORBANCE” value ([4]; C2C12, 1 μg/mL) was 0.30, the “% OF CONTROL VALUE” ([4]; C2C12, 2 μg/mL) was 99% and the “MEAN ABSORBANCE” value ([4]; C2C12, 2 μg/mL) was 0.30. The “% OF CONTROL VALUE” ([4]; C2C12, 5 μg/mL) was 99%, the “MEAN ABSORBANCE” value ([4]; C2C12, 5 μg/mL) was 0.30 and the “% OF CONTROL VALUE” ([4]; C2C12, 10 μg/mL) was 90%. For the same substance, the “MEAN ABSORBANCE” value ([4]; C2C12, 10 μg/mL) was 0.27 and the growth induction ([4]; C2C12 cells, 0 to 10 μg/mL, 3 days) was “negative”.
